In patent publication US20230129485A1, “SYSTEM AND METHOD FOR DETERMINING MATERIAL PROPERTIES OF MOLECULAR SYSTEMS FROM AN AB-INITIO PARAMETERIZED FORCE-FIELD” (InterX, Inc., priority 2021, published 2023):
Like-named read-outs stand apart in the source and are kept apart here.

How the values were obtained:
[1] = CHEX/H2O partition coefficient (log D) predicted with the QM-parameterized force field model (ARROW FF)
Procedure, shortened: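 Cyclohexane/water partition coefficients were predicted by molecular simulation with a QM-parameterized force field, with bonded force constants and equilibrium values fitted to MP2/aug-cc-pVTZ energies. Solutes carried neutral functional groups, and results from four independent groups were averaged.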

[2] = Table 5; free energy of hydration, GAFF prediction taken from literature; cited from earlier work
[3] = Free energy of hydration by COSMO-RS
Procedure, shortened: (§1)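 COSMO solvation free energies were calculated for the molecule set with MolPro because no original-COSMO free energy data were available. SMD and PCM hydration free energies were obtained as received. SMD, PCM and COSMO-RS values cover only molecules that overlap with those computed using the QM-parameterized force field model.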

[4] = Free energy of hydration by Polarizable Continuum Model (PCM); conditions: absolute error vs Exp (hydration)
Procedure, shortened: as §1

[5] = Free energy of hydration by Solvation Model Dielectric (SMD) implicit solvent model; conditions: absolute error vs Exp (hydration)
Procedure, shortened: as §1

[6] = implicit solvent model, values received; cited from earlier work
[7] = Table 5; free energy of hydration, AMOEBA prediction taken from literature; cited from earlier work
[8] = Free energy of hydration by COSMO implicit solvent model (MolPro ver. 2012); conditions: absolute error vs Exp (hydration)
Procedure, shortened: as §1

[9] = Free energy of hydration predicted by polarizable AMOEBA force field, from literature; conditions: Table 5; error of AMOEBA hydration free energy vs experiment
[10] = implicit solvent model, values received; cited from earlier work; remark: listed apart in the source
[11] = Free energy of hydration predicted with the QM-parameterized force field model (ARROW FF), classical MD and PIMD simulation in a water box; conditions: for water Arrow MD Error / water Arrow PIMD8 Error: Table 3; for water Arrow MD Error: absolute error of MD hydration free energy vs experiment; for water Arrow PIMD8 Error: absolute error of PIMD8 hydration free energy vs experiment; for Arrow error: Table 5, error of Arrow PIMD8 hydration free energy vs experiment; for Arrow PIMD8 Error: absolute error vs Exp (hydration)
Procedure, shortened: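 Classical and PIMD runs (MTS integrator, MTTK barostat at 1 atm) followed minimization and 50 ps equilibration, with 1 ns NPT production per window. Fifteen unequally spaced lambda windows removed all solute-solvent interactions simultaneously in a 32 Å water box. Hydration free energy computed by Bennett acceptance ratio and thermodynamic integration.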

[12] = Table 3; CHEX/H2O partition coefficient, experimental; cited from earlier work
[13] = free energy of hydration, experimental, cited from earlier work; for water Exp (hydration): Table 3; for Exp (hydration): Table 5
[14] = Free energy of hydration predicted by General Amber Force Field (GAFF), from literature; conditions: Table 5; error of GAFF hydration free energy vs experiment
[15] = Table 3; free energy of solvation in cyclohexane, experimental; cited from earlier work

SMILES | GAFF [2] | COSMO-RS error [3] | PCM Error [4] | SMD Error [5] | PCM free energy of hydration [6] | AMOEBA [7] | COSMO/Molpro Error [8] | AMOEBA error [9] | SMD free energy of hydration [10] | water Arrow MD Error [11] | water Arrow PIMD8 Error [11] | Arrow error [11] | Arrow PIMD8 Error [11] | water Exp (hydration) [13] | Exp (hydration) [13] | GAFF error [14] | CHEX Exp (solvation) [15] | also measured
CN(C)C [trimethylamine] | -2.32 kcal/mol | 2.55 kcal/mol | 1.90 kcal/mol | 0.70 kcal/mol | -1.30 kcal/mol | -2.09 kcal/mol | 0.30 kcal/mol | 1.11 kcal/mol | -2.50 kcal/mol | 1.04 kcal/mol | 0.02 kcal/mol | 0.02 kcal/mol | 0.02 kcal/mol | -3.20 kcal/mol | -3.20 kcal/mol | 0.88 kcal/mol | -2.63 kcal/mol | log D Arrow MD Error [1]: 0.10; log D Arrow PIMD Error [1]: 0.43; Exp (log D) [12]: −0.42
CNC [dimethylamine] | -3.11 kcal/mol | 2.12 kcal/mol | 2.30 kcal/mol | 1.10 kcal/mol | -2.00 kcal/mol | -3.04 kcal/mol | 0.57 kcal/mol | 1.26 kcal/mol | -3.20 kcal/mol | 1.38 kcal/mol | 0.23 kcal/mol | 0.23 kcal/mol | 0.23 kcal/mol | -4.30 kcal/mol | -4.30 kcal/mol | 1.19 kcal/mol |  | 
c1ccccc1 [Benzene] | -0.70 kcal/mol | 0.01 kcal/mol | 0.72 kcal/mol | 0.18 kcal/mol | -1.60 kcal/mol | -0.86 kcal/mol | 2.32 kcal/mol | 0.02 kcal/mol | -0.70 kcal/mol | 0.58 kcal/mol | 0.17 kcal/mol | 0.17 kcal/mol | 0.17 kcal/mol | -0.88 kcal/mol | -0.88 kcal/mol | 0.18 kcal/mol | -4.19 kcal/mol | 
CCN [ethylamine] | -3.14 kcal/mol | 0.30 kcal/mol | 1.70 kcal/mol | 0.70 kcal/mol | -2.80 kcal/mol | -4.33 kcal/mol | 1.30 kcal/mol | 0.17 kcal/mol | -3.80 kcal/mol | 1.03 kcal/mol | 0.12 kcal/mol | 0.12 kcal/mol | 0.12 kcal/mol | -4.50 kcal/mol | -4.50 kcal/mol | 1.36 kcal/mol | -2.13 kcal/mol | log D Arrow MD Error ([1]; Table 3, absolute error of MD log D vs experiment): 0.69; log D Arrow PIMD Error ([1]; Table 3, absolute error of PIMD log D vs experiment): 0.08; Exp (log D) [12]: −1.74
C=CCC [But-1-ene] | 2.48 kcal/mol | 0.36 kcal/mol | 2.18 kcal/mol | 0.18 kcal/mol | -0.80 kcal/mol | 0.83 kcal/mol | 3.14 kcal/mol | 0.55 kcal/mol | 1.20 kcal/mol | 0.54 kcal/mol | 0.25 kcal/mol | 0.25 kcal/mol | 0.25 kcal/mol | 1.38 kcal/mol | 1.38 kcal/mol | 1.10 kcal/mol |  | 
c1c[nH]cn1 [Imidazole] | -7.85 kcal/mol | 1.30 kcal/mol | 2.90 kcal/mol | 0.60 kcal/mol | -6.70 kcal/mol | -10.25 kcal/mol | 3.71 kcal/mol | 0.65 kcal/mol | -9.00 kcal/mol | 0.81 kcal/mol | 0.29 kcal/mol | 0.29 kcal/mol | 0.29 kcal/mol | -9.6 kcal/mol | -9.60 kcal/mol | 1.75 kcal/mol |  | 
CSC [DiMethylSulfide] | -1.85 kcal/mol |  | 0.56 kcal/mol | 1.24 kcal/mol | -2.10 kcal/mol | -1.85 kcal/mol | 2.61 kcal/mol | 0.31 kcal/mol | -0.30 kcal/mol | 0.59 kcal/mol | 0.16 kcal/mol | 0.16 kcal/mol | 0.16 kcal/mol | -1.54 kcal/mol | -1.54 kcal/mol | 0.31 kcal/mol |  | 
COC [DiMethylEther] | -0.85 kcal/mol |  | 0.11 kcal/mol | 1.31 kcal/mol | -1.80 kcal/mol | -2.22 kcal/mol | 1.99 kcal/mol | 0.31 kcal/mol | -0.60 kcal/mol | 0.87 kcal/mol | 0.37 kcal/mol | 0.37 kcal/mol | 0.37 kcal/mol | -1.91 kcal/mol | -1.91 kcal/mol | 1.06 kcal/mol |  | 
